{"source": "paper PMC3880596", "about": "(Journal of medicinal chemistry, 2013)", "data": [{"tested_on": "P. falciparum Indochina W2 clone", "experiment": "microbe, parasite or virus in culture", "assay_type": "cell-based, Plasmodium falciparum", "conditions": "not given", "values": [{"smiles": "COc1ccc(CNCCCNc2ccnc3cc(Cl)ccc23)cc1", "note": "[compound 11, N-(7-Chloroquinolin-4-yl)-N'-(4-methoxybenzyl)propane-1,3-diamine]", "selectivity index (IC50), SI = ICtox/ICP.f. activity, W2": "86/778/95"}, {"smiles": "Fc1ccc(CNCCCNc2ccnc3cc(Cl)ccc23)cc1", "note": "[compound 13, N-(7-Chloroquinolin-4-yl)-N'-(4-fluorobenzyl)propane-1,3-diamine]", "selectivity index (IC50), SI = ICtox/ICP.f. activity, W2": "110/415/185"}, {"smiles": "Clc1ccc2c(NCCNCc3cnccc3Cl)ccnc2c1", "note": "[compound 20, N-[(4-Chloropyridin-3-yl)methyl]-N'-(7-chloroquinolin-4-yl)ethane-1,2-diamine]", "selectivity index (IC50), SI = ICtox/ICP.f. activity, W2": "46/102/78"}, {"smiles": "Clc1ccc2c(NCCNCc3ccncc3)ccnc2c1", "note": "[compound 16, N-(7-Chloroquinolin-4-yl)-N'-(pyridin-4-ylmethyl)ethane-1,2-diamine]", "selectivity index (IC50), SI = ICtox/ICP.f. activity, W2": "409/2528/752"}, {"smiles": "CC(C)(C)c1ccc(CNCCCNc2ccnc3cc(Cl)ccc23)cc1", "note": "[compound 9, N-(4-Tert-butylbenzyl)-N'-(7-chloroquinolin-4-yl)propane-1,3-diamine]", "selectivity index (IC50), SI = ICtox/ICP.f. activity, W2": "45/100/68"}]}, {"tested_on": "P. falciparum Indochina W2 clone", "experiment": "microbe, parasite or virus in culture", "assay_type": "cell-based, Plasmodium falciparum", "conditions": "Plasmodium falciparum, W2, read-out: antimalarial activity IC50, CQR W2", "units": {"IC50": "nM"}, "values": [{"smiles": "CCN(CC)CCCC(C)Nc1ccnc2cc(Cl)ccc12.O=P(O)(O)O.O=P(O)(O)O", "note": "(stereo not shown) [CQ, chloroquine, reference compound]", "IC50": 634}]}, {"tested_on": "P. falciparum African D6 clone", "experiment": "microbe, parasite or virus in culture", "assay_type": "cell-based, Plasmodium falciparum", "conditions": "not given", "values": [{"smiles": "COc1ccc(CNCCCNc2ccnc3cc(Cl)ccc23)cc1", "note": "[compound 11, N-(7-Chloroquinolin-4-yl)-N'-(4-methoxybenzyl)propane-1,3-diamine]", "selectivity index (IC50), SI = ICtox/ICP.f. activity, D6": "86/778/95"}, {"smiles": "Fc1ccc(CNCCCNc2ccnc3cc(Cl)ccc23)cc1", "note": "[compound 13, N-(7-Chloroquinolin-4-yl)-N'-(4-fluorobenzyl)propane-1,3-diamine]", "selectivity index (IC50), SI = ICtox/ICP.f. activity, D6": "110/415/185"}, {"smiles": "Clc1ccc2c(NCCNCc3cnccc3Cl)ccnc2c1", "note": "[compound 20, N-[(4-Chloropyridin-3-yl)methyl]-N'-(7-chloroquinolin-4-yl)ethane-1,2-diamine]", "selectivity index (IC50), SI = ICtox/ICP.f. activity, D6": "46/102/78"}, {"smiles": "Clc1ccc2c(NCCNCc3ccncc3)ccnc2c1", "note": "[compound 16, N-(7-Chloroquinolin-4-yl)-N'-(pyridin-4-ylmethyl)ethane-1,2-diamine]", "selectivity index (IC50), SI = ICtox/ICP.f. activity, D6": "409/2528/752"}, {"smiles": "CC(C)(C)c1ccc(CNCCCNc2ccnc3cc(Cl)ccc23)cc1", "note": "[compound 9, N-(4-Tert-butylbenzyl)-N'-(7-chloroquinolin-4-yl)propane-1,3-diamine]", "selectivity index (IC50), SI = ICtox/ICP.f. activity, D6": "45/100/68"}]}, {"tested_on": "P. falciparum African D6 clone", "experiment": "microbe, parasite or virus in culture", "assay_type": "cell-based, Plasmodium falciparum", "conditions": "Plasmodium falciparum, D6, read-out: antimalarial activity IC50, CQS D6", "units": {"IC50": "nM"}, "values": [{"smiles": "CCN(CC)CCCC(C)Nc1ccnc2cc(Cl)ccc12.O=P(O)(O)O.O=P(O)(O)O", "note": "(stereo not shown) [CQ, chloroquine, reference compound]", "IC50": 14.2}, {"smiles": "COc1ccc(CNCCCNc2ccnc3cc(Cl)ccc23)cc1", "note": "[compound 11, N-(7-Chloroquinolin-4-yl)-N'-(4-methoxybenzyl)propane-1,3-diamine]", "IC50": "< 9"}]}, {"tested_on": "P. falciparum multidrug resistant C235 strain (Thailand)", "experiment": "microbe, parasite or virus in culture", "assay_type": "cell-based, Plasmodium falciparum", "conditions": "not given", "values": [{"smiles": "COc1ccc(CNCCCNc2ccnc3cc(Cl)ccc23)cc1", "note": "[compound 11, N-(7-Chloroquinolin-4-yl)-N'-(4-methoxybenzyl)propane-1,3-diamine]", "selectivity index (IC50), SI = ICtox/ICP.f. activity, TM91C235": "86/778/95"}, {"smiles": "Fc1ccc(CNCCCNc2ccnc3cc(Cl)ccc23)cc1", "note": "[compound 13, N-(7-Chloroquinolin-4-yl)-N'-(4-fluorobenzyl)propane-1,3-diamine]", "selectivity index (IC50), SI = ICtox/ICP.f. activity, TM91C235": "110/415/185"}, {"smiles": "Clc1ccc2c(NCCNCc3cnccc3Cl)ccnc2c1", "note": "[compound 20, N-[(4-Chloropyridin-3-yl)methyl]-N'-(7-chloroquinolin-4-yl)ethane-1,2-diamine]", "selectivity index (IC50), SI = ICtox/ICP.f. activity, TM91C235": "46/102/78"}, {"smiles": "Clc1ccc2c(NCCNCc3ccncc3)ccnc2c1", "note": "[compound 16, N-(7-Chloroquinolin-4-yl)-N'-(pyridin-4-ylmethyl)ethane-1,2-diamine]", "selectivity index (IC50), SI = ICtox/ICP.f. activity, TM91C235": "409/2528/752"}, {"smiles": "CC(C)(C)c1ccc(CNCCCNc2ccnc3cc(Cl)ccc23)cc1", "note": "[compound 9, N-(4-Tert-butylbenzyl)-N'-(7-chloroquinolin-4-yl)propane-1,3-diamine]", "selectivity index (IC50), SI = ICtox/ICP.f. activity, TM91C235": "45/100/68"}]}, {"tested_on": "P. falciparum multidrug resistant C235 strain (Thailand)", "experiment": "microbe, parasite or virus in culture", "assay_type": "cell-based, Plasmodium falciparum", "conditions": "Plasmodium falciparum, read-out: antimalarial activity IC50, MDR TM91C235", "units": {"IC50": "nM"}, "values": [{"smiles": "CCN(CC)CCCC(C)Nc1ccnc2cc(Cl)ccc12.O=P(O)(O)O.O=P(O)(O)O", "note": "(stereo not shown) [CQ, chloroquine, reference compound]", "IC50": 226}]}, {"target": "recombinant BoNT/A LC (Clostridium botulinum, UniProt P0DPI0)", "sequence (P0DPI0 2-448 limits assumed)": "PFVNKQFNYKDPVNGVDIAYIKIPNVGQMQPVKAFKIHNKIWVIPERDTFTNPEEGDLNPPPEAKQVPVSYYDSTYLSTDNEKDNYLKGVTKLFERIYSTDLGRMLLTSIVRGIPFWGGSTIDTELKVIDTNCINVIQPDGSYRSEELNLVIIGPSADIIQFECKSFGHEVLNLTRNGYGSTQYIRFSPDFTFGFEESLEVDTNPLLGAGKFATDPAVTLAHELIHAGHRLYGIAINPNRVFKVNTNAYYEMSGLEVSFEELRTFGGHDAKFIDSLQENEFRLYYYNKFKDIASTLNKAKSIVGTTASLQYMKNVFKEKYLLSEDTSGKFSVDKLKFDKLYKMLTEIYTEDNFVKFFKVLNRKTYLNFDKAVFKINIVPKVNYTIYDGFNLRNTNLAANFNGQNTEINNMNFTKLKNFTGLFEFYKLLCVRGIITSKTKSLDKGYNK", "experiment": "not given", "conditions": "cited from earlier work", "values": [{"smiles": "CCN(CC)CCCC(C)Nc1c2ccc(Cl)cc2nc2ccc(OC)cc12", "note": "(stereo not shown) [Quinacrine]", "BoNT/A LC inhibition (in words)": "poor inhibitors"}, {"smiles": "NCCNc1ccnc2cc(Cl)ccc12", "note": "[compound 4, N1-(7-chloroquinolin-4-yl)ethane-1,2-diamine]", "BoNT/A LC inhibition (in words), tested as fragments": "poor BoNT/A LC inhibitors"}, {"smiles": "CCN(CC)CCCC(C)Nc1ccnc2cc(Cl)ccc12.O=P(O)(O)O.O=P(O)(O)O", "note": "(stereo not shown) [CQ, chloroquine, reference compound]", "BoNT/A LC inhibition (in words)": "poor BoNT/A LC inhibitors"}, {"smiles": "CCN(CC)Cc1cc(Nc2ccnc3cc(Cl)ccc23)ccc1O", "note": "[Amodiaquine]", "BoNT/A LC inhibition (in words)": "poor inhibitors"}, {"smiles": "NCCCNc1ccnc2cc(Cl)ccc12", "note": "[compound 5, N1-(7-chloroquinolin-4-yl)propane-1,3-diamine]", "BoNT/A LC inhibition (in words), tested as fragments": "poor BoNT/A LC inhibitors"}, {"smiles": "C=C[C@H]1C[N@@]2CC[C@H]1C[C@@H]2[C@@H](O)c1ccnc2ccc(OC)cc12", "note": "[Quinidine]", "BoNT/A LC inhibition (in words)": "poor inhibitors"}, {"smiles": "C=C[C@H]1C[N@@]2CC[C@H]1C[C@H]2[C@H](O)c1ccnc2ccc(OC)cc12", "note": "[Quinine]", "BoNT/A LC inhibition (in words)": "poor inhibitors"}]}, {"tested_on": "not listed separately", "experiment": "in vitro", "conditions": "human, microsomes, pH 7.4", "units": {"half-life": "h"}, "values": [{"smiles": "Clc1ccc2c(NCCCNCc3ccc(Br)cc3)ccnc2c1", "note": "[compound 15, N-(4-Bromobenzyl)-N'-(7-chloroquinolin-4-yl)propane-1,3-diamine]", "half-life": "≥ 1"}]}, {"tested_on": "not listed separately", "experiment": "in vitro", "conditions": "mouse, microsomes, pH 7.4", "units": {"half-life": "h"}, "values": [{"smiles": "Clc1ccc2c(NCCCNCc3ccc(Br)cc3)ccnc2c1", "note": "[compound 15, N-(4-Bromobenzyl)-N'-(7-chloroquinolin-4-yl)propane-1,3-diamine]", "half-life": "≥ 1"}]}]}
